Laboratory results as given in US7115753B2, “Triaryl cation antibiotics from environmental DNA” (Wisconsin Alumni Research Foundation, priority 2000, dated 2006).
Read-outs that look alike come from different tables or passages of the source. Marks after values point to notes of the source that are not given here.

What was measured:
[1] = tested on: Pseudomonas aeruginosa 9020; test: Zone of inhibition assay; type: cell-based; parameters: key: (+) 2 to 13 mm zone; (+/−) 1 mm zone; (−) no zone of inhibition; conditions: 10 μl drop of 250 μg/ml in DMSO
[2] = tested on: Streptococcus pyogenes 8P01; test: Zone of inhibition assay; type: cell-based; conditions: 10 μl drop of 250 μg/ml in DMSO
[3] = tested on: Escherichia coli HS997; test: Zone of inhibition assay; type: cell-based; conditions: 10 μl drop of 250 μg/ml in DMSO
[4] = tested on: Fusarium solani (f. sp. glycine) 90.1; test: Zone of inhibition assay (fungal plug on plate); type: cell-based; parameters: key: (+) 2 to 13 mm zone; (+/−) 1 mm zone; (−) no zone of inhibition; conditions: DMSO-dissolved compound on plate, 23° C., 7 days
Description: (§1) Pythium ultimum (1033) and Fusarium solani f sp. glycine (90.1) were grown on ¼- strength potato dextrose agar (29) at 23° C. Plugs were cut from the fungal lawn using a #5 cork borer and placed onto the center of a fresh plate containing the DMSO-dissolved compounds. The plates were incubated 7 days, or until the organism covered the plate, at 23° C., in the dark.

[5] = tested on: Pythium ultimum 1033; test: Zone of inhibition assay (fungal plug on plate); type: cell-based; parameters: key: (+) 2 to 13 mm zone; (+/−) 1 mm zone; (−) no zone of inhibition; conditions: DMSO-dissolved compound on plate, 23° C., 7 days
Description: as §1

[6] = tested on: Staphylococcus aureus 3001; test: Zone of inhibition assay; type: cell-based; conditions: 10 μl drop of 250 μg/ml in DMSO
[7] = tested on: Enterococcus faecalis 4025; test: Zone of inhibition assay; type: cell-based; parameters: key: (+) 2 to 13 mm zone; (+/−) 1 mm zone; (−) no zone of inhibition; conditions: 10 μl drop of 250 μg/ml in DMSO
[8] = tested on: B. cereus var. mycoides 1003; type: cell-based, Bacillus cereus var. mycoides; conditions: 10 μl drop of 250 μg/ml in DMSO
[9] = tested on: Streptomyces griseus 6501; test: Zone of inhibition assay; type: cell-based; conditions: 10 μl drop of 250 μg/ml in DMSO
[10] = tested on: Erwinia herbicola IRQ; test: Zone of inhibition assay; type: cell-based; conditions: 10 μl drop of 250 μg/ml in DMSO
[11] = tested on: Candida guilliermondii Y001; test: Zone of inhibition assay; type: cell-based; conditions: 10 μl drop of 250 μg/ml in DMSO
[12] = tested on: Salmonella typhimurium LT2; test: Zone of inhibition assay; type: cell-based; conditions: 10 μl drop of 250 μg/ml in DMSO
[13] = tested on: Streptococcus pyogenes; test: Minimum inhibitory concentration (MIC) in broth culture; type: cell-based; conditions: synthetic compound
Description: (§2) Overnight cultures were prepared as for the plate inhibition assays. Culture optical densities (O.D.) were normalized to 0.15 (150 μl path length) by performing 1:1 serial dilutions (150 μl transfer into 150 μl diluent) in a 96 well microtiter plate. Inoculum cell concentrations (colony forming units/ml) were subsequently determined by performing 1:5 serial dilution series (50 μl transfer into 200 μl diluent) in a second microtiter plate. Three dilutions were plated ([…]) by mixing 50 μl of a given dilution into 20 ml of cooled BHI/YE medium and quickly pouring into a petri plate. Test compounds, both natural and synthetic, were dissolved in DMSO (2.0 mg/ml) and diluted into BHI/YE medium to a concentration of 106 μg/ml (5.35% v/v DMSO). Samples of each of the test compounds (150 μl each) were added to 3 separate wells, each containing 150 μl of BHI/YE medium (no DMSO). […] Three plates were prepared for each test organism (n=3 […]=9 per compound, per organism). Additional wells were included in duplicate on each plate for color subtraction, +/-DMSO, and minus compound controls (n=2 […]=6 per control, per organism). Ten μl of normalized inoculum was added per well. Absorbance at 590 nm was read using a […] Victor® Microtiter plate reader; double circular mixing was performed for 10 seconds prior to reading at times 0, 30 and 60 hours. The plates were statically incubated at 28° C. when not being read. Absorbance values were imported into Microsoft Excel® and analyzed graphically.

[14] = tested on: Salmonella typhimurium; test: as above; type: cell-based; conditions: synthetic compound
Description: as §2

[15] = tested on: Staphylococcus aureus; test: as above; type: cell-based
Description: as §2

[16] = tested on: Bacillus subtilis; test: as above; type: cell-based; conditions: synthetic compound
Description: as §2

[17] = tested on: Erwinia herbicola; test: as above; type: cell-based; conditions: synthetic compound
Description: as §2

Structure (SMILES) | Antibiotic activity (zone of inhibition) ([1]; Natural compound) | Antibiotic activity (zone of inhibition) ([1]; Synthetic compound) | Antibiotic activity (zone of inhibition) ([2]; Natural compound) | Antibiotic activity (zone of inhibition) ([2]; Synthetic compound) | Antibiotic activity (zone of inhibition) ([3]; Natural compound) | Antibiotic activity (zone of inhibition) ([3]; Synthetic compound) | Antibiotic activity (zone of inhibition) ([4]; Natural compound) | Antibiotic activity (zone of inhibition) ([4]; Synthetic compound) | Antibiotic activity (zone of inhibition) ([5]; Natural compound) | Antibiotic activity (zone of inhibition) ([5]; Synthetic compound) | Antibiotic activity (zone of inhibition) ([6]; Natural compound) | Antibiotic activity (zone of inhibition) ([6]; Synthetic compound) | Antibiotic activity (zone of inhibition) ([7]; Natural compound) | Antibiotic activity (zone of inhibition) ([7]; Synthetic compound) | Antibiotic activity (zone of inhibition) ([8]; Natural compound) | Antibiotic activity (zone of inhibition) ([8]; Synthetic compound) | Antibiotic activity (zone of inhibition) ([9]; Natural compound) | Antibiotic activity (zone of inhibition) ([9]; Synthetic compound) | Antibiotic activity (zone of inhibition) ([10]; Natural compound) | Antibiotic activity (zone of inhibition) ([10]; Synthetic compound) | other results
c1ccc([C+](c2c[nH]c3ccccc23)c2c[nH]c3ccccc23)cc1 [Turbomycin B, turbomycin B] | − | − | + ((+) 2 to 13 mm zone) | + ((+) 2 to 13 mm zone) | +/− ((+/−) 1 mm zone) | +/− ((+/−) 1 mm zone) | − | − | − | − | + ((+) 2 to 13 mm zone) | + ((+) 2 to 13 mm zone) | − | − | + ((+) 2 to 13 mm zone) | + ((+) 2 to 13 mm zone) | + ((+) 2 to 13 mm zone) | + ((+) 2 to 13 mm zone) | + ((+) 2 to 13 mm zone) | + ((+) 2 to 13 mm zone) | Antibiotic activity (zone of inhibition) ([11]; Natural compound): +/− ((+/−) 1 mm zone); Antibiotic activity (zone of inhibition) ([11]; Synthetic compound): +/− ((+/−) 1 mm zone); Antibiotic activity (zone of inhibition) ([12]; Natural compound): + ((+) 2 to 13 mm zone); Antibiotic activity (zone of inhibition) ([12]; Synthetic compound): + ((+) 2 to 13 mm zone)
c1ccc2c([C+](c3c[nH]c4ccccc34)c3c[nH]c4ccccc34)c[nH]c2c1 [Turbomycin A, turbomycin A] | − | −^c | + ((+) 2 to 13 mm zone) | + ((+) 2 to 13 mm zone) | +/− ((+/−) 1 mm zone) | +/−^b ((+/−) 1 mm zone) | − | − | − | − | + ((+) 2 to 13 mm zone) | + ((+) 2 to 13 mm zone) | − | − | + ((+) 2 to 13 mm zone) | + ((+) 2 to 13 mm zone) | + ((+) 2 to 13 mm zone) | + ((+) 2 to 13 mm zone) | + ((+) 2 to 13 mm zone) | +^a ((+) 2 to 13 mm zone) | minimum inhibitory concentration (MIC) [13]: 6.2 µg/mL; minimum inhibitory concentration (MIC) [14]: 12.5 µg/mL; MIC of natural product compared with synthetic compound ([15]; natural product, same experiment as synthetic compound, S. aureus): same MIC; minimum inhibitory concentration (MIC) ([15]; synthetic compound, broth culture, Staphylococcus aureus): 6.2 µg/mL; minimum inhibitory concentration (MIC) [16]: 6.2 µg/mL; minimum inhibitory concentration (MIC) [17]: 6.2 µg/mL; Antibiotic activity (zone of inhibition) ([11]; Natural compound): +/− ((+/−) 1 mm zone); Antibiotic activity (zone of inhibition) ([11]; Synthetic compound): +/− ((+/−) 1 mm zone); Antibiotic activity (zone of inhibition) ([12]; Natural compound): + ((+) 2 to 13 mm zone); Antibiotic activity (zone of inhibition) ([12]; Synthetic compound): + ((+) 2 to 13 mm zone)
